Entries after “also recorded” stand apart in the source; their conditions may differ. Residues, ends and D or L forms follow the SMILES beside them.

The record followed here is patent publication US11179471B2, “Peptide for cytosolic delivery” (priority 2017, dated 2021).

Holding throughout (assay type): cell-based
The subject of one series is HeLa cells. Briefly: Release of Alexa 488-dextran (10 kDa) into the cytoplasm, confocal microscopy. The procedure: Cells; HeLa, peptides; 40 μM, Alexa 488-dextran (10 kDa); 200 μg/mL, treatment; 1 hr in α-MEM(−).
Cells; HeLa, peptides; 40 μM, Alexa 488-dextran (10 kDa); 200 μg/mL, treatment; 1 hr in α-MEM(−). The results are presented as means ±SE (n=3). **; p<0.01 (Student's t-test).
Cells; HeLa, peptides; 40 μM, Alexa 488-dextran (10 kDa); 200 μg/mL, treatment; 1 hr in α-MEM(−). Results are presented as means±SE (n=3). *; p<0.05, **; p<0.01, ***; p<0.001 (one-way ANOVA followed by the Tukey-Kramer honestly significant difference test (post-hoc test)).
In the presence of each peptide obtained in Example 1 (L17E, L17E/Q21E, HA/E1, HA/E2) (40 μM) or in the absence of the peptides (a control, no peptide), HeLa cells and Alexa 488-dextran (Molecular Probes, 10 kDa) (200 μg/mL) were treated in α-MEM(−) for 1 hour. The cells were washed, and observed with a confocal microscope.
In the presence of each peptide obtained in Example 1 (L17E, L17Aad) (40 μM) or in the absence of the peptides (a control, no peptide), HeLa cells and Alexa 488-dextran (Molecular Probes, 10 kDa) (200 μg/mL) were treated in α-MEM(−) for 1 hour. The cells were washed, and observed with a confocal microscope.
In the presence of each peptide obtained in Example 1 (HAad, HA/E2, L17Aad, L17E) (40 μM) or in the absence of the peptides (a control, no peptide), HeLa cells and Alexa 488-dextran (Molecular Probes, 10 kDa) (200 μg/mL) were treated in α-MEM(−) for 1 hour. The cells were washed, and observed with a confocal microscope.
When HeLa cells were incubated with Alexa 488-dextran (10 kDa) (200 μg/mL) as a macromolecular drug model in the presence of HAad (40 μM) in α-MEM(−) for 1 hour, Alexa 488-dextran release into about 75% of cells (cytosol) was observed. In contrast, when the incubation was performed in the presence of L17E, Alexa 488-dextran release into about 50% of the cells was observed.
HeLa cells, Alexa 488-dextran (Molecular Probes, 10 kDa) (200 μg/mL), and HAad; or HeLa cells, Alexa 488-dextran, (Molecular Probes, 10 kDa) (200 μg/mL), and HAad-homoR (20 μM) were treated in α-MEM(−) for 1 hour. The cells were washed, and observed with a confocal microscope.

The next series has as its system RAW 264.7 cells. Briefly: Cell-killing assay by intracellular delivery of toxin protein saporin (WST-8). The note with it: saporin 10 μg/mL, 40 μM. The procedure:
Saporin is known as a cytotoxin that kills cancer cells by its intracellular delivery. RAW 264.7 cells and saporin (10 μg/mL) were incubated in the presence of HAad, HA/E2, or L17E (40 μM each) in α-MEM(−) medium for 1 hour. After the cells were then washed and the medium was replaced with DMEM(+), the cells were further incubated for 6 hours. The cell viability (%) was assayed by WST-8 assay (FIG. 10).
Background: Tetrazolium dyes change colour on reduction, which living cells bring about.

The nature of series [1]: Cell viability 24 hours after peptide treatment in the presence of serum (WST-8). The conditions noted are these: cells (cell line not given); peptide 10 μM, 20 μM and 40 μM; α-MEM(+) 24 hours; WST-8. On the procedure:
(§1) After the cells were incubated in the presence of HAad, HA/E2, or L17E (each 10 μM, 20 μM, and 40 μM) in α-MEM(+) medium for 24 hours, the cell viability (%) was evaluated by WST-8 assay (FIG. 14). The cell viability (%) after 24 hours with the use of any peptide at any concentration was almost 100%.

In a further series the test system is cells. The series is described as above. The conditions noted are these: 10-40 μM; α-MEM(+) 24 hours. The procedure:
as §1

As for `CC[C@H](C)[C@H](N)C(=O)N[C@@H](Cc1c[nH]c2ccccc12)C(=O)N[C@@H](CC(C)C)C(=O)N[C@H](C(=O)N[C@@H](C)C(=O)N[C@@H](CC(C)C)C(=O)N[C@@H](CCCCN)C(=O)N[C@@H](Cc1ccccc1)C(=O)N[C@@H](CC(C)C)C(=O)NCC(=O)N[C@@H](CCCCN)C(=O)N[C@@H](C)C(=O)N[C@@H](C)C(=O)N[C@@H](C)C(=O)N[C@@H](CCCCN)C(=O)N[C@@H](C)C(=O)N[C@@H](CCCC(=O)O)C(=O)N[C@@H](C)C(=O)N[C@@H](CCCCN)C(=O)N[C@@H](CCC(N)=O)C(=O)N[C@@H](CCCC(=O)O)C(=O)N[C@@H](CC(C)C)C(=O)N[C@@H](CO)C(=O)N[C@@H](CCCCN)C(=O)N[C@@H](CC(C)C)C(N)=O)[C@@H](C)O` [HAad, H-IWLTALKFLGKAAAKAXAKQXLSKL-amide] (HELM PEPTIDE1{I.W.L.T.A.L.K.F.L.G.K.A.A.A.K.A.[O=C(O)CCC[C@H](N[*:1])C(=O)[*:2]].A.K.Q.[O=C(O)CCC[C@H](N[*:1])C(=O)[*:2]].L.S.K.L.[am]}$$$$V2.0), the “cells in which release of Alexa 488-dextran into the cytoplasm was observed” value with HeLa cells (peptide 20 μM, Alexa 488-dextran (10 kDa) 200 μg/mL, 1 hour in α-MEM(−)) is on record as “about 40%”. For the same compound, in the series on HeLa cells (peptide 40 μM, Alexa 488-dextran 200 μg/mL, 1 hr, compared with L17E), the “endosome-encapsulated substance (Alexa 488-dextran) releasing activity, in words” value is given as “higher endosomal content release activity than L17E; also recorded: Significant outflow; also recorded: much more effectively”. In addition, the “cells in which Alexa 488-dextran release into the cytosol was observed” value with HeLa cells (peptide 40 μM, Alexa 488-dextran (10 kDa) 200 μg/mL, 1 hour in α-MEM(−)) was “about 75%”. In addition, the “cell viability relative to that in the presence of L17E” value with RAW 264.7 cells is “¼”. The viability (in general, a read-out of living cells in per cent, often relative to untreated cells) at 24 h in series [1] is roughly 100%. The “toxicity, in words” value in the series on cells is “no significant toxicity”.
